# Measurements: patent publication US12102683B2 (Auson Pharmaceuticals, Inc., priority 2022, dated 2024)
# Counter-ions that a name gives are not always drawn.
# Assays:
# [1] = hydrolysate; as worded; cited from earlier work
# [2] = physchem
# Description: Therefore, propylene glycol was used as a basic solvent in the formulation of the present patent.
Compound,Solubility in propylene glycol (in words) [2],other results
COc1ccc([C@@H]2Sc3ccccc3N(CCN(C)C)C(=O)[C@@H]2O)cc1 [deacetyldiltiazem],–,Activity relative to the activity of diltiazem hydrochloride [1]: 20%-40%
"COc1ccc([C@@H]2Sc3ccccc3N(CCN(C)C)C(=O)[C@@H]2OC(C)=O)cc1 [diltiazem hydrochloride, reference compound]",–,solubility ([2]; organic solvent or mixture): 79 mg/mL
hydroxypropyl methylcellulose,insoluble,–
sodium carboxymethylcellulose,insoluble,–
